Measured values published in paper PMC10062379 (Archives of biochemistry and biophysics, 2022).

tested on: HeLa; assay: cells; parameters: species or system OVCAR-8, NCI/ADR-RES; settings: Homo sapiens, 96 h, read-out: HeLa / IC50 (nM) ± S.D.)

First: CC(C)[C@H](O)C(=O)N[C@H]1Cc2ccc3c(c2)[C@]24C5=C(N=C(O5)[C@H](C(C)C)NC1=O)c1nc(Cl)c(o1)-c1c(Cl)[nH]c5cccc(c15)-c1cccc2c1N[C@@H]4O3 [Diazonamide A]
Second: COc1ccc(C[C@H]2NC(=O)/C=C/C[C@@H]([C@H](C)[C@H]3O[C@@H]3c3ccccc3)OC(=O)[C@H](CC(C)C)OC(=O)[C@H](C)CNC2=O)cc1Cl [cryptophycin 1]
The IC50 of the first is 1500-fold higher: 15 ± 5 nM for the first, 0.01 ± 0.004 nM for the second. The second is the more potent here.

Going from `COc1cc2cc(c1Cl)N(C)C(=O)C[C@H](OC(=O)[C@H](C)N(C)C(C)=O)[C@]1(C)O[C@H]1[C@H](C)[C@@H]1C[C@@](O)(NC(=O)O1)[C@H](OC)/C=C/C=C(\C)C2` [Maytansine] to `CC[C@]1(O)C[C@@H]2CN(CCc3c([nH]c4ccccc34)[C@@](C(=O)OC)(c3cc4c(cc3OC)N(C)[C@H]3[C@@](O)(C(=O)OC)[C@H](OC(C)=O)[C@]5(CC)C=CCN6CC[C@]43[C@@H]65)C2)C1` [vinblastine], the IC50 rises from 2 nM to 6 ± 3 nM (3-fold). The first is the more potent here.

Going from `CO[C@@H](/C(C)=C/C=C/C(C)=C/c1coc(C)n1)[C@@H](C)[C@@H]1C[C@H](O)[C@@]2(C)O[C@@H]2/C=C/[C@@H](C)[C@H]2C[C@H](CC(=O)O2)C[C@@H]2O[C@H]2C(=O)O1` [Rhizoxin] to `C=C1C[C@@H]2CC[C@@]34C[C@H]5O[C@H]6[C@@H](O3)[C@H]3O[C@H](CC[C@@H]3O[C@H]6[C@H]5O4)CC(=O)C[C@@H]3[C@@H](OC)[C@@H](C[C@H](O)CN)O[C@H]3C[C@H]3O[C@@H](CC[C@@H]1O2)C[C@@H](C)C3=C` [eribulin], the IC50 rises from 3 ± 1 nM to 20 nM (6.7-fold). The first is the more potent here.

Compared with `CC[C@H](C)[C@@H]([C@@H](CC(=O)N1CCC[C@H]1[C@H](OC)[C@@H](C)C(=O)N[C@@H](Cc1ccccc1)c1nccs1)OC)N(C)C(=O)[C@@H](NC(=O)[C@H](C(C)C)N(C)C)C(C)C` [dolastatin 10], `CN[C@H](C(=O)N[C@H](C(=O)N(C)[C@H](/C=C(\C)C(=O)O)C(C)C)C(C)(C)C)C(C)(C)c1cn(C)c2ccccc12` [hemiasterlin] is 6.2-fold higher in IC50: 0.04 ± 0.01 nM for the first, 0.25 ± 0.05 nM for the second. The first is the more potent here.

target: tubulin (αβ-heterodimer); assay: competition with [3H]spongistatin […], centrifugal gel filtration; type: binding, Bos taurus; settings: not given

In the case of `C=C(Cl)/C=C/C(O)CC(=C)CC1OC2C(C)C(OC(=O)CC3CC(O)CC4(CC(C)(O)CC(/C=C5/COC(C(C)C(=O)CC6CC(OC)CC7(CC(O)CC(/C=C\CCCC8OC(O)(CC(O)C8C)C2O)O7)O6)C5C)O4)O3)C1O` (stereo not shown) [spongistatin 5], the Ki is reported as 2200 nM.

target: tubulin (αβ-heterodimer); assay: [3H] radioligand binding; parameters: species or system Bos taurus; settings: not given

spongistatin 1 showed a Kd of 1100 ± 300 nM.
